From ChEMBL document CHEMBL1129998, “Pharmacological options in the treatment of benign prostatic hyperplasia” (J Med Chem, 1997)

Tests used:
[1] = target: 3 beta-hydroxysteroid dehydrogenase/Delta 5-->4-isomerase type 1 (Homo sapiens, UniProt P14060); assay: Binding affinity on 3 beta-hydroxysteroid dehydrogenase
[2] = target: T1, Alpha-1A adrenergic receptor (Rattus norvegicus, UniProt P43140); assay: Binding affinity was tested on CEC-pretreated rat hippocampus Alpha-1A adrenergic receptor; type: tissue-based
T1 sequence (P43140 whole entry): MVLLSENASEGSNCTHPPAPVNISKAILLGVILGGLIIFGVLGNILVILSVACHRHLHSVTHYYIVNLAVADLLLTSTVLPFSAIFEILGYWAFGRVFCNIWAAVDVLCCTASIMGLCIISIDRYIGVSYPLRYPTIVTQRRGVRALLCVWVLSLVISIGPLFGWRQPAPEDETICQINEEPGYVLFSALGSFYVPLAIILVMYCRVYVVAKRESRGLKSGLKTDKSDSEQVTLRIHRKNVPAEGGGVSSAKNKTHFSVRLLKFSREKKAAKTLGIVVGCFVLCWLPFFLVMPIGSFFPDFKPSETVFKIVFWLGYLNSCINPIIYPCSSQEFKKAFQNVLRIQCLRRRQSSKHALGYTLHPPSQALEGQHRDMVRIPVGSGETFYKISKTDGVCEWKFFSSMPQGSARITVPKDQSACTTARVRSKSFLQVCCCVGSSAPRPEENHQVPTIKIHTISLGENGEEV

[3] = target: T2, Alpha-1B adrenergic receptor (Rattus norvegicus, UniProt P15823); assay: Binding affinity was tested on CEC-pretreated rat liver Alpha-1B adrenergic receptor
T2 sequence (P15823 whole entry): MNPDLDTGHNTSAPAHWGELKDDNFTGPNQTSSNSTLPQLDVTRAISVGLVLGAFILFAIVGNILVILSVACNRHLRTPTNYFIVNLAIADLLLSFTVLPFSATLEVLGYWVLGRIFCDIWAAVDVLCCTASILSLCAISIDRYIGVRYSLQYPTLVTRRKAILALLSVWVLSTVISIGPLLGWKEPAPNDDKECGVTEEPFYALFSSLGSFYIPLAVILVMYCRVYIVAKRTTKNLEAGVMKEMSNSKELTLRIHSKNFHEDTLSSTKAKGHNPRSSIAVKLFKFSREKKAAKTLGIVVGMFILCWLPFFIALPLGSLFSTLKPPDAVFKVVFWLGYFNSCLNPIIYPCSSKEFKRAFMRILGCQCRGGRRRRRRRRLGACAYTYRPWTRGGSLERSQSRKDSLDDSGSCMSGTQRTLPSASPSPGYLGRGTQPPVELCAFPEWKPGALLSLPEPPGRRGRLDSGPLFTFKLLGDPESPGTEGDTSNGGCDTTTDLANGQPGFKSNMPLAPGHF

[4] = In vivo dose (iv) for 50% inhibition of norepinephrine-mediated contraction of proximal urethra (ID50) with the dose (iv) for 25% reduction in systolic blood pressure (ED25) in anesthetized dogs; type: functional
Canis familiaris [5] = assay: 50% reduction in intraurethral pressure (IUP) in response to hypogastric nerve stimulation or agonist (phenylephrine or norepinephrine) administration in anesthetized dog; type: functional; settings: Canis lupus familiaris; read-out: ID50 (the source's name)
[6] = target: T3, Alpha-1D adrenergic receptor (Homo sapiens, UniProt P25100); assay: Binding affinity was tested on human Alpha-1D adrenergic receptor
T3 sequence (P25100 whole entry): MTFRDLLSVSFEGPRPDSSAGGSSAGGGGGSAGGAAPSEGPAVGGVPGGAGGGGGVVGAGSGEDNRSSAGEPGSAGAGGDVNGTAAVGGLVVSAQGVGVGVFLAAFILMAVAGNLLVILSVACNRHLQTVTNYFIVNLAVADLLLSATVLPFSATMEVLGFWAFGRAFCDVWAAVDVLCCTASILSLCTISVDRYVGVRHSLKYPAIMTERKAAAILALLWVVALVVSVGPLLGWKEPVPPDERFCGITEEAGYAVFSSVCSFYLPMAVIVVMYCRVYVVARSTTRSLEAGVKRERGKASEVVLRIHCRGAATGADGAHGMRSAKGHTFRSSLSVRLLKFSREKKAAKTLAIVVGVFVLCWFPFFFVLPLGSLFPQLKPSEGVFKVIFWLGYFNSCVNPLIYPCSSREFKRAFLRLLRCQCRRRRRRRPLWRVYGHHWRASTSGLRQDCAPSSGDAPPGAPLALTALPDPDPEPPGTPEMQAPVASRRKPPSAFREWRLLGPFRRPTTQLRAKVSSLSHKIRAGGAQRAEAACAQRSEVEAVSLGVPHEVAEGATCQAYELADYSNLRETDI

[7] = target: T4, Adrenergic receptor alpha-1 (Homo sapiens, UniProt P35348+P25100+P35368); assay: pA2 for Alpha-1 adrenergic receptor from human prostate.; type: tissue-based, Prostate gland
T4 sequence (P35348 whole entry): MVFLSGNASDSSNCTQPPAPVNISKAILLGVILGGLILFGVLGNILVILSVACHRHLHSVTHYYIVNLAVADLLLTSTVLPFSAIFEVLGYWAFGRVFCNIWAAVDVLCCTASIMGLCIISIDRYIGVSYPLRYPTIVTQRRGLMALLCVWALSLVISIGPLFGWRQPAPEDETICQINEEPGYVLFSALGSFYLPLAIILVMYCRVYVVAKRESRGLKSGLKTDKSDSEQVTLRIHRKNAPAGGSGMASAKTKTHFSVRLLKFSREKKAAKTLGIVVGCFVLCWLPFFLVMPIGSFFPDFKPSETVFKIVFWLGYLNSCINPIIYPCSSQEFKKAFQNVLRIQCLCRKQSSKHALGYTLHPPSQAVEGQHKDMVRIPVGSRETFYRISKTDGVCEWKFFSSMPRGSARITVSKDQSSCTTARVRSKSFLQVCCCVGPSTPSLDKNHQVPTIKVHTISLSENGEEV
T4 sequence (P25100 whole entry): T3 sequence (P25100 whole entry)
T4 sequence (P35368 whole entry): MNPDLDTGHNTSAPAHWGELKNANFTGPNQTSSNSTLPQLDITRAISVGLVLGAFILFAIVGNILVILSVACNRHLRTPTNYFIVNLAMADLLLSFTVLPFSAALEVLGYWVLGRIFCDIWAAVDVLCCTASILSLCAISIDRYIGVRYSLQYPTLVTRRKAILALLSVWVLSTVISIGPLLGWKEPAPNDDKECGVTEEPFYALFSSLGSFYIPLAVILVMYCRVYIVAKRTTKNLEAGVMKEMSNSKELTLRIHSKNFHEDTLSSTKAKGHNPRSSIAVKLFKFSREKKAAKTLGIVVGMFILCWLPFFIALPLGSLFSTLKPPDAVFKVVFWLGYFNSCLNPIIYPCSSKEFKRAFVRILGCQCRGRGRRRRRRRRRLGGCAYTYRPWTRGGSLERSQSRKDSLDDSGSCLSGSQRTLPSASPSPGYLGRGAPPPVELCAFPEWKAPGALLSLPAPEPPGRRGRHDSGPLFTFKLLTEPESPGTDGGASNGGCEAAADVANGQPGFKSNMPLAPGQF

[8] = target: T5, Alpha-1B adrenergic receptor (Homo sapiens, UniProt P35368); assay: Binding affinity was tested on human Alpha-1B adrenergic receptor
T5 sequence (P35368 whole entry): T4 sequence (P35368 whole entry)

Canis familiaris [9] = assay: 50% reduction in agonist induced pressor response in anesthetized dog; type: functional; settings: Canis lupus familiaris; read-out: ID50 (the source's name)
[10] = Ratio of intraurethral pressure to that of pressor response in dog.; type: functional
[11] = target: T6, Alpha-1A adrenergic receptor (Homo sapiens, UniProt P35348); assay: Binding affinity was tested on human Alpha-1A adrenergic receptor
T6 sequence (P35348 whole entry): T4 sequence (P35348 whole entry)

[12] = target: T7, 3-oxo-5-alpha-steroid 4-dehydrogenase 1 (Homo sapiens, UniProt P18405); assay: Inhibitory concentration on human 5-alpha reductase 1 isozyme
T7 sequence (P18405 whole entry): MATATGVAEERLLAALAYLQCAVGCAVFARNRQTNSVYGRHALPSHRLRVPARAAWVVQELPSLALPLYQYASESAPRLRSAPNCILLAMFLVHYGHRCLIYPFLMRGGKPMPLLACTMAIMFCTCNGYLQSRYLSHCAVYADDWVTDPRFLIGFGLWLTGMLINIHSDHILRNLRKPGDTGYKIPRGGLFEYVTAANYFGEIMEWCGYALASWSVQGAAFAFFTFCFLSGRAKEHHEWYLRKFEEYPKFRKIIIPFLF

[13] = Dose (iv) for 20% reduction of mean blood pressure in rat (ID20) with the dose for 50% inhibition of norepinephrine-mediated contraction of proximal urethra (ID50) in cat; type: functional
[14] = target: T8, Steroid 5-alpha-reductase (Rattus norvegicus, UniProt P24008+P31214); assay: Binding affinity on rat 5-alpha reductase-1 isozyme; type: protein assay
T8 sequence (P24008 whole entry): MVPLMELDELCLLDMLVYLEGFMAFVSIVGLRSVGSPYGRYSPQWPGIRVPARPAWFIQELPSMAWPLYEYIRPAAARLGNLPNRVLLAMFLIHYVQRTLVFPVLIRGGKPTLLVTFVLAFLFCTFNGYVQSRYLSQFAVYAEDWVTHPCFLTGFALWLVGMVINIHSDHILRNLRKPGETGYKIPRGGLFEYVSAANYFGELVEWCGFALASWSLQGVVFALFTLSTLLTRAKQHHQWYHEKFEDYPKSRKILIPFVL
T8 sequence (P31214 whole entry): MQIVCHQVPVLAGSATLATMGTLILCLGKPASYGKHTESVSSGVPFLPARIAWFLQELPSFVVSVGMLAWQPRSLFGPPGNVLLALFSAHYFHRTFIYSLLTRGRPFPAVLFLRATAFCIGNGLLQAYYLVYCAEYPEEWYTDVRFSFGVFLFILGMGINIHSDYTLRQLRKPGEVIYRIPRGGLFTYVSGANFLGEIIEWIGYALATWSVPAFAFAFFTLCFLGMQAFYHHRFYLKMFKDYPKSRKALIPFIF

[15] = target: T9, 3-oxo-5-alpha-steroid 4-dehydrogenase 2 (Homo sapiens, UniProt P31213); assay: Binding affinity for human 5-alpha reductase 2 isozyme
T9 sequence (P31213 whole entry): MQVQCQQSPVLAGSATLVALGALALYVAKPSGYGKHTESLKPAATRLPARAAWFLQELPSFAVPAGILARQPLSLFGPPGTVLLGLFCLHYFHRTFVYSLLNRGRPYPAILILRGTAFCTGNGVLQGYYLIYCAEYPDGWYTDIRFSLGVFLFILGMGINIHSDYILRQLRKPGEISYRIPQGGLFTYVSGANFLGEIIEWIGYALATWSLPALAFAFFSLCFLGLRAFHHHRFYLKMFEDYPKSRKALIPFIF

[16] = target: T7, 3-oxo-5-alpha-steroid 4-dehydrogenase 1; assay: Binding affinity for human 5 alpha reductase 1 isozyme

Chain of 3 beta-hydroxysteroid dehydrogenase/Delta 5-->4-isomerase type 1 (P14060 whole entry): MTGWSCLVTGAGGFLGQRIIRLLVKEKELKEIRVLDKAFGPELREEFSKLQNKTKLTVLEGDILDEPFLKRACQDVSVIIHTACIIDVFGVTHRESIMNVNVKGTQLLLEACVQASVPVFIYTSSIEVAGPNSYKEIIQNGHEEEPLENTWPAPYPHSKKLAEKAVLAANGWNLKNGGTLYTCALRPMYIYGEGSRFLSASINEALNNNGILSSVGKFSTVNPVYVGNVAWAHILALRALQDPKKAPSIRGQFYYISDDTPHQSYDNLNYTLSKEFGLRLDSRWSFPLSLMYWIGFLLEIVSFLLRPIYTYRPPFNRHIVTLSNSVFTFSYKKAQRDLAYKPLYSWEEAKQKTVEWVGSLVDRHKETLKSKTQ

`CC(C)(C)CCNC(=O)[C@H]1CCC2C3CNC4=CC(=O)CC[C@]4(C)C3CC[C@@]21C` (some centres not stated) showed an IC50 [1] of 8.3 nM.
Molecule `COc1ccccc1N1CCN(CCCCOc2cccc3c(=O)c(C)c(-c4ccccc4)oc23)CC1` has an IC50 [2] of 10 nM, an IC50 [3] of 39 nM and a Ratio [4] of 13.
`CC(C)(C)CC(C)(C)NC(=O)[C@H]1CCC2C3CNC4=CC(=O)CC[C@]4(C)C3CC[C@@]21C` (some centres not stated) gave an IC50 [1] of 150 nM.
`Cc1c[nH]c(=O)n(CCCN2CCN(c3ccc(F)cc3OCC(F)(F)F)CC2)c1=O` gave an ED50 (Canis familiaris [5]) of 0.005 mg/kg, a Ki [6] of 100 nM and a pA2 [7] of 8.8. It also gave a Ki [8] of 79.4 nM, an ED50 (Canis familiaris [9]) of 0.38 mg/kg and a Ratio [10] of 76. For the same molecule, the Ki [11] was 1 nM.
`O=C(O)c1cc2cc(OCc3ccccc3)ccc2[nH]1` gave a Ki [12] greater than 2500 nM.
For `COc1ccc(Cl)cc1N1CCN(CCCNc2nccc(C(N)=O)n2)CC1`, the ED50 (Canis familiaris [5]) was 0.005 mg/kg, the Ki [6] was 2.51 nM and the pA2 [7] was 8.6. The Ratio [13] was 46, the Ki [8] was 12.6 nM and the ED50 (Canis familiaris [9]) was 0.021 mg/kg. The Ratio [10] was 5 and the Ki [11] was 2.51 nM.
Work on `COc1ccccc1N1CCN(CCNC(=O)c2cccc3c(=O)c(C)c(-c4ccccc4)oc23)CC1` yielded an IC50 [2] of 14 nM, an IC50 [3] of 79 nM and a Ratio [4] of 14.
With `C[C@]12CCC(C(=O)O)=CC1=CCc1cc(Cl)ccc12` the Ki [14] was 1200 nM.
Work on `CC1=C2NCC3C(CC[C@@]4(C)C3CC[C@@H]4C(=O)Nc3cc(C(F)(F)F)ccc3C(F)(F)F)[C@@]2(C)CCC1=O` (some centres not stated) yielded an IC50 [15] of less than 0.1 nM and a Ki [16] of 0.2 nM.
